Data: PMC5148695 (Neuropharmacology, 2016)

Biological target: α4β3δ GABAA receptor (Homo sapiens, UniProt P28472+P48169)
Test: whole-cell patch clamp, potentiation of GABA EC20 current
Assay type: cell-based

α4β3δ GABAA receptor, sequence (P48169 36-554): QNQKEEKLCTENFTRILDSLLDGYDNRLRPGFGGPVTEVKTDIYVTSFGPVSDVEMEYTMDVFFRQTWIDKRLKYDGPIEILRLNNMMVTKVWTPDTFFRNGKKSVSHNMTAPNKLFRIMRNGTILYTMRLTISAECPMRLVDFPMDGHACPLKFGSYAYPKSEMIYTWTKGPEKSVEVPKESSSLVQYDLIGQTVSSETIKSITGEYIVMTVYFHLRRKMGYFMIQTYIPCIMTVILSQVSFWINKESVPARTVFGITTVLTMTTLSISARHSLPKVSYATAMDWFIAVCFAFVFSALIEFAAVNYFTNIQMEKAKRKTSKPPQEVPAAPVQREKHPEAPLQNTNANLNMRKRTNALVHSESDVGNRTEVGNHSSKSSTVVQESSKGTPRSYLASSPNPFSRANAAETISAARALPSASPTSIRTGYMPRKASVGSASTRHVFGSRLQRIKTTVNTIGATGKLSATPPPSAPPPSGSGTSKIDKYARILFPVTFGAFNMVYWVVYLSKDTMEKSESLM
α4β3δ GABAA receptor, sequence (P28472 26-473): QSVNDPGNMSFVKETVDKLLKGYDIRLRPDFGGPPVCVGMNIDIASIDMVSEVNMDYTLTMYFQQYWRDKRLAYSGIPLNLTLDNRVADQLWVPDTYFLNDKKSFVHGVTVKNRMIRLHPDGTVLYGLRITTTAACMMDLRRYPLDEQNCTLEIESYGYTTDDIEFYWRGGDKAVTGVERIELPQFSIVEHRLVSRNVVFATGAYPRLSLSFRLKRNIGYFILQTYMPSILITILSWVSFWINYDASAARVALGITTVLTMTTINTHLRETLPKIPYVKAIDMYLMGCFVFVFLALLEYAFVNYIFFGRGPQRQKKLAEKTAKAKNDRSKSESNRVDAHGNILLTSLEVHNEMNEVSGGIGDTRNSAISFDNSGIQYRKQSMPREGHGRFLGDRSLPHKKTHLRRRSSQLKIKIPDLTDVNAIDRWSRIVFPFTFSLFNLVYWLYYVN
α4β3δ GABAA receptor, sequence (O14764 25-452 partner): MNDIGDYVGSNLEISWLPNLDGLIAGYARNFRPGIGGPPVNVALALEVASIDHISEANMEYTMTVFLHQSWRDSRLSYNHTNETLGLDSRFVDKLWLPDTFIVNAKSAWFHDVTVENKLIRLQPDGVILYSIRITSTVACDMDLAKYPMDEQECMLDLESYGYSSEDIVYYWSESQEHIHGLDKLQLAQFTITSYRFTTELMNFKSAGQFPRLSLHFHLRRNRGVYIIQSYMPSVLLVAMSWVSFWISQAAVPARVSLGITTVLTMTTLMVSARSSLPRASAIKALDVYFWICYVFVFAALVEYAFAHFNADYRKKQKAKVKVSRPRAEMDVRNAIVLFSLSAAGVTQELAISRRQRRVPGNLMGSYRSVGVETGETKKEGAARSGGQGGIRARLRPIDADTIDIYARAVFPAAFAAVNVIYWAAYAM

Question: How did the EC50 turn out when `CC(=O)[C@H]1CC[C@H]2[C@@H]3CC[C@H]4C[C@H](O)CC[C@]4(C)[C@H]3CC[C@]12C` [ALLO] was run?
Answer: The EC50 was 57 nM.
